Source: patent publication US6358885B1, “Substituted phenylheterocyclic herbicides” (Mississippi State University, priority 1992, dated 2002)

Assays:
Assay in all cases: Test B preemergence/postemergence greenhouse plant response rating 0 to 10
Conditions in all cases: 0 to 10 scale
barley = assay type: in vivo, Hordeum vulgare
Outline: (§1)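 Both application timings were run together: seeds got compound preemergence, and established seedlings (two to eighteen cm) got it postemergence. Non-phytotoxic solvent carried the chemical. Ratings are visual, versus controls, at twelve to sixteen days.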

barnyardgrass = assay type: in vivo, Echinochloa crus-galli
Outline: as §1

bedstraw = assay type: in vivo, Galium aparine
Outline: as §1

blackgrass = assay type: in vivo, Alopecurus myosuroides
Outline: as §1

cheatgrass = assay type: in vivo, Bromus secalinus
Outline: as §1

chickweed = assay type: in vivo, Stellaria media
Outline: as §1

cocklebur = assay type: in vivo, Xanthium pensylvanicum
Outline: as §1

corn = assay type: in vivo, Zea mays
Outline: as §1

cotton = assay type: in vivo, Gossypium hirsutum
Outline: as §1

crabgrass = assay type: in vivo, Digitaria spp.
Outline: as §1

giant foxtail = assay type: in vivo, Setaria faberii
Outline: as §1

lambsquarters = assay type: in vivo, Chenopodium album
Outline: as §1

morningglory = assay type: in vivo, Ipomoea hederacea
Outline: as §1

rape = assay type: in vivo, Brassica napus
Outline: as §1

rice = assay type: in vivo, Oryza sativa
Outline: as §1

sorghum = assay type: in vivo, Sorghum bicolor
Outline: as §1

soybean = assay type: in vivo, Glycine max
Outline: as §1

sugar beet = assay type: in vivo, Beta vulgaris
Outline: as §1

velvetleaf = assay type: in vivo, Abutilon theophrasti
Outline: as §1

wheat = assay type: in vivo, Triticum aestivum
Outline: as §1

wild buckwheat = assay type: in vivo, Polygonum convolvulus
Outline: as §1

wild oat = assay type: in vivo, Avena fatua
Outline: as §1

purple nutsedge = assay type: in vivo, Cyperus rotundus
Outline: as §1

CC(C#N)Oc1cc(-c2nn3c(c2Cl)CCCC3)c(F)cc1Cl (centres unmarked) [Compound 60]
Plant response rating, Barley (barley; POSTEMERGENCE, Rate 10 g/ha): 3 | Plant response rating, Barley (barley; POSTEMERGENCE, Rate 50 g/ha): 4 | Plant response rating, Barley (barley; PREEMERGENCE, Rate 10 g/ha): 0 | Plant response rating, Barley (barley; PREEMERGENCE, Rate 50 g/ha): 0 | Plant response rating, Barnyardgrass (barnyardgrass; POSTEMERGENCE, Rate 10 g/ha): 3 | Plant response rating, Barnyardgrass (barnyardgrass; POSTEMERGENCE, Rate 50 g/ha): 4 | Plant response rating, Barnyardgrass (barnyardgrass; PREEMERGENCE, Rate 10 g/ha): 0 | Plant response rating, Barnyardgrass (barnyardgrass; PREEMERGENCE, Rate 50 g/ha): 0 | Plant response rating, Bedstraw (bedstraw; POSTEMERGENCE, Rate 10 g/ha): 7 | Plant response rating, Bedstraw (bedstraw; POSTEMERGENCE, Rate 50 g/ha): 9 | Plant response rating, Bedstraw (bedstraw; PREEMERGENCE, Rate 50 g/ha): 6 | Plant response rating, Blackgrass (blackgrass; POSTEMERGENCE, Rate 10 g/ha): 3 | Plant response rating, Blackgrass (blackgrass; POSTEMERGENCE, Rate 50 g/ha): 3 | Plant response rating, Blackgrass (blackgrass; PREEMERGENCE, Rate 10 g/ha): 0 | Plant response rating, Blackgrass (blackgrass; PREEMERGENCE, Rate 50 g/ha): 0 | Plant response rating, Cheatgrass (cheatgrass; POSTEMERGENCE, Rate 10 g/ha): 3 | Plant response rating, Cheatgrass (cheatgrass; POSTEMERGENCE, Rate 50 g/ha): 3 | Plant response rating, Cheatgrass (cheatgrass; PREEMERGENCE, Rate 10 g/ha): 0 | Plant response rating, Cheatgrass (cheatgrass; PREEMERGENCE, Rate 50 g/ha): 2 | Plant response rating, Chickweed (chickweed; POSTEMERGENCE, Rate 10 g/ha): 3 | Plant response rating, Chickweed (chickweed; POSTEMERGENCE, Rate 50 g/ha): 7 | Plant response rating, Chickweed (chickweed; PREEMERGENCE, Rate 50 g/ha): 4 | Plant response rating, Cocklebur (cocklebur; POSTEMERGENCE, Rate 10 g/ha): 6 | Plant response rating, Cocklebur (cocklebur; POSTEMERGENCE, Rate 50 g/ha): 8 | Plant response rating, Cocklebur (cocklebur; PREEMERGENCE, Rate 10 g/ha): 0 | Plant response rating, Cocklebur (cocklebur; PREEMERGENCE, Rate 50 g/ha): 0 | Plant response rating, Corn (corn; POSTEMERGENCE, Rate 10 g/ha): 3 | Plant response rating, Corn (corn; POSTEMERGENCE, Rate 50 g/ha): 3 | Plant response rating, Corn (corn; PREEMERGENCE, Rate 50 g/ha): 0 | Plant response rating, Cotton (cotton; POSTEMERGENCE, Rate 10 g/ha): 9 | Plant response rating, Cotton (cotton; POSTEMERGENCE, Rate 50 g/ha): 10 | Plant response rating, Cotton (cotton; PREEMERGENCE, Rate 10 g/ha): 0 | Plant response rating, Cotton (cotton; PREEMERGENCE, Rate 50 g/ha): 5 | Plant response rating, Crabgrass (crabgrass; POSTEMERGENCE, Rate 10 g/ha): 2 | Plant response rating, Crabgrass (crabgrass; POSTEMERGENCE, Rate 50 g/ha): 2 | Plant response rating, Crabgrass (crabgrass; PREEMERGENCE, Rate 10 g/ha): 0 | Plant response rating, Crabgrass (crabgrass; PREEMERGENCE, Rate 50 g/ha): 0 | Plant response rating, Giant foxtail (giant foxtail; POSTEMERGENCE, Rate 10 g/ha): 3 | Plant response rating, Giant foxtail (giant foxtail; POSTEMERGENCE, Rate 50 g/ha): 4 | Plant response rating, Giant foxtail (giant foxtail; PREEMERGENCE, Rate 10 g/ha): 0 | Plant response rating, Giant foxtail (giant foxtail; PREEMERGENCE, Rate 50 g/ha): 2 | Plant response rating, Lambsquarter (lambsquarters; POSTEMERGENCE, Rate 10 g/ha): 10 | Plant response rating, Lambsquarter (lambsquarters; POSTEMERGENCE, Rate 50 g/ha): 10 | Plant response rating, Lambsquarter (lambsquarters; PREEMERGENCE, Rate 50 g/ha): 9 | Plant response rating, Morningglory (morningglory; POSTEMERGENCE, Rate 10 g/ha): 7 | Plant response rating, Morningglory (morningglory; POSTEMERGENCE, Rate 50 g/ha): 7 | Plant response rating, Morningglory (morningglory; PREEMERGENCE, Rate 50 g/ha): 3 | Plant response rating, Rape (rape; POSTEMERGENCE, Rate 10 g/ha): 6 | Plant response rating, Rape (rape; POSTEMERGENCE, Rate 50 g/ha): 10 | Plant response rating, Rape (rape; PREEMERGENCE, Rate 50 g/ha): 6 | Plant response rating, Rice (rice; POSTEMERGENCE, Rate 10 g/ha): 3 | Plant response rating, Rice (rice; POSTEMERGENCE, Rate 50 g/ha): 4 | Plant response rating, Rice (rice; PREEMERGENCE, Rate 50 g/ha): 1 | Plant response rating, Sorghum (sorghum; POSTEMERGENCE, Rate 10 g/ha): 3 | Plant response rating, Sorghum (sorghum; POSTEMERGENCE, Rate 50 g/ha): 3 | Plant response rating, Sorghum (sorghum; PREEMERGENCE, Rate 50 g/ha): 2 | Plant response rating, Soybean (soybean; POSTEMERGENCE, Rate 10 g/ha): 6 | Plant response rating, Soybean (soybean; POSTEMERGENCE, Rate 50 g/ha): 4 | Plant response rating, Soybean (soybean; PREEMERGENCE, Rate 50 g/ha): 0 | Plant response rating, Sugar beet (sugar beet; POSTEMERGENCE, Rate 10 g/ha): 10 | Plant response rating, Sugar beet (sugar beet; POSTEMERGENCE, Rate 50 g/ha): 10 | Plant response rating, Sugar beet (sugar beet; PREEMERGENCE, Rate 50 g/ha): 9 | Plant response rating, Velvetleaf (velvetleaf; POSTEMERGENCE, Rate 10 g/ha): 7 | Plant response rating, Velvetleaf (velvetleaf; POSTEMERGENCE, Rate 50 g/ha): 8 | Plant response rating, Velvetleaf (velvetleaf; PREEMERGENCE, Rate 50 g/ha): 6 | Plant response rating, Wheat (wheat; POSTEMERGENCE, Rate 10 g/ha): 3 | Plant response rating, Wheat (wheat; POSTEMERGENCE, Rate 50 g/ha): 4 | Plant response rating, Wheat (wheat; PREEMERGENCE, Rate 50 g/ha): 2 | Plant response rating, Wild buckwheat (wild buckwheat; POSTEMERGENCE, Rate 10 g/ha): 9 | Plant response rating, Wild buckwheat (wild buckwheat; POSTEMERGENCE, Rate 50 g/ha): 10 | Plant response rating, Wild buckwheat (wild buckwheat; PREEMERGENCE, Rate 50 g/ha): 7 | Plant response rating, Wild oat (wild oat; POSTEMERGENCE, Rate 10 g/ha): 2 | Plant response rating, Wild oat (wild oat; POSTEMERGENCE, Rate 50 g/ha): 4 | Plant response rating, Wild oat (wild oat; PREEMERGENCE, Rate 50 g/ha): 3 | Plant response rating, Nutsedge (purple nutsedge; POSTEMERGENCE, Rate 10 g/ha): 1 | Plant response rating, Nutsedge (purple nutsedge; POSTEMERGENCE, Rate 50 g/ha): 2 | Plant response rating, Nutsedge (purple nutsedge; PREEMERGENCE, Rate 50 g/ha): 0
